# Laboratory results published in patent publication US20260083851A1 (AVILAR THERAPEUTICS, INC., priority 2022, published 2026).
# Molecular target: T1, ASGP receptor (biotinylated ASGPR) (Homo sapiens, UniProt P07306)
# T1 construct: biotin (biotinylated)
# T1 sequence (P07306 1-291): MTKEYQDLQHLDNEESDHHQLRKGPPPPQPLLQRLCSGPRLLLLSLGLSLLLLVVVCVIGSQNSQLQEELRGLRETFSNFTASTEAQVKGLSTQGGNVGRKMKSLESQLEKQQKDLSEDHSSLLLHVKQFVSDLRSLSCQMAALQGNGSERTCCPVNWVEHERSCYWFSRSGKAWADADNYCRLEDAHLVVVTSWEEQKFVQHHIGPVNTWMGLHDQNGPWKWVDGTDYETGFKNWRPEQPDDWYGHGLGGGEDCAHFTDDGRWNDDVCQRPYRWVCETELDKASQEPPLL
# Assay type: binding
# Conditions: SPR, Biacore 8K, 25° C.; Table 1A; read-out: ASGPR KD
row,Kd,Compound
1,< 10 µM,"O=C(NC[C@H]1OC[C@H](Nc2cncc(C(F)(F)F)n2)[C@@H](O)[C@H]1O)c1cnc2c(c1)CCNC2 [A76, N-(((2R,3R,4R,5S)-3,4-dihydroxy-5-((6-(trifluoromethyl)pyrazin-2-yl)amino)tetrahydro-2H-pyran-2-yl)methyl)-5,6,7,8-tetrahydro-1,7-naphthyridine-3-carboxamide]"
2,< 10 µM,"O=C(NC[C@H]1OC[C@H](Nc2cncc(C(F)(F)F)n2)[C@@H](O)[C@H]1O)c1ccnnc1 [A27, N-(((2R,3R,4R,5S)-3,4-dihydroxy-5-((6-(trifluoromethyl)pyrazin-2-yl)amino)tetrahydro-2H-pyran-2-yl)methyl)pyridazine-4-carboxamide]"
3,< 10 µM,"NCCOCCOCCOC[C@H]1OC[C@H](Nc2cncc(C(F)(F)F)n2)[C@@H](O)[C@H]1O [A53, (2R,3R,4R,5S)-2-((2-(2-(2-aminoethoxy)ethoxy)ethoxy)methyl)-5-((6-(trifluoromethyl)pyrazin-2-yl)amino)tetrahydro-2H-pyran-3,4-diol]"
4,< 10 µM,O=C(NC[C@H]1OC[C@H](Nc2cncc(C(F)(F)F)n2)[C@@H](O)[C@H]1O)c1cnc(-c2ccccc2)nc1 [A89]
5,< 10 µM,O=C(O)COCCOCCOCC(=O)NC[C@H]1OC[C@H](Nc2cncc(C(F)(F)F)n2)[C@@H](O)[C@H]1O [A33]
6,10 to 100 µM,OC[C@H]1O[C@H](Cc2ccccc2)[C@@H](Nc2nccc(C(F)(F)F)n2)[C@@H](O)[C@H]1O [A104]
7,< 10 µM,"O[C@@H]1[C@H](O)[C@@H](Nc2cncc(C(F)(F)F)n2)CO[C@@H]1CN1CCCCCC1 [A70, (2R,3R,4R,5S)-2-(azepan-1-ylmethyl)-5-((6-(trifluoromethyl)pyrazin-2-yl)amino)tetrahydro-2H-pyran-3,4-diol]"
8,< 10 µM,COCCO[C@H]1O[C@H](CO)[C@H](O)[C@H](O)[C@H]1Nc1cncc(C(F)(F)F)n1 [A5]
9,< 10 µM,O=C(NC[C@H]1OC[C@H](Nc2cncc(C(F)(F)F)n2)[C@@H](O)[C@H]1O)c1ncco1 [A50]
10,< 10 µM,"O=C(O)COCCOCC(=O)NC[C@H]1OC[C@H](Nc2nccc(C(F)(F)F)n2)[C@@H](O)[C@H]1O [A106, 2-(2-(2-((((2R,3R,4R,5S)-3,4-dihydroxy-5-((4-(trifluoromethyl)pyrimidin-2-yl)amino)tetrahydro-2H-pyran-2-yl)methyl)amino)-2-oxoethoxy)ethoxy)acetic acid]"
11,< 10 µM,"O=C(NC[C@H]1OC[C@H](Nc2cncc(C(F)(F)F)n2)[C@@H](O)[C@H]1O)c1cc(F)ccn1 [A39, N-(((2R,3R,4R,5S)-3,4-dihydroxy-5-((6-(trifluoromethyl)pyrazin-2-yl)amino)tetrahydro-2H-pyran-2-yl)methyl)-4-fluoropicolinamide]"

# Same assay, conditions: SPR, Biacore 8K, 25° C.; Table 1B, numeric bound; read-out: ASGPR Kd
row,Kd,Compound
1,> 30 µM,"OC[C@H]1OC[C@H](NC2CCCC(C(F)(F)F)C2)[C@@H](O)[C@H]1O (stereo partly drawn) [A158, (2R,3R,4R,5S)-2-(hydroxymethyl)-5-((3-(trifluoromethyl)cyclohexyl)amino) tetrahydro-2H-pyran-3,4-diol]"
2,> 30 µM,"OC[C@H]1OC[C@H](NC2CCCCC2)[C@@H](O)[C@H]1O [A159, (2R,3R,4R,5S)-5-(cyclohexylamino)-2-(hydroxymethyl)tetrahydro-2H-pyran-3,4-diol]"

# Same assay, conditions: SPR, Biacore 8K, 25° C.; Table 1B; read-out: ASGPR Kd
row,Kd,Compound
1,< 10 µM,"O=C1c2ccccc2CN1C[C@H]1OC[C@H](Nc2cncc(C(F)(F)F)n2)[C@@H](O)[C@H]1O [A152, 2-(((2R,3R,4R,5S)-3,4-dihydroxy-5-((6-(trifluoromethyl)pyrazin-2-yl)amino)tetrahydro-2H-pyran-2-yl)methyl) isoindolin-1-one]"

# Same assay, conditions: SPR, Biacore 8K, 25° C.; Table 1C; read-out: ASGPR KD
row,Compound,Kd
1,"CC(C)(C)OC(=O)N1CC=C(c2cccc(N[C@H]3CO[C@H](CO)[C@H](O)[C@@H]3O)n2)CC1 [A195, tert-butyl 6-(((3S,4R,5R,6R)-4,5-dihydroxy-6-(hydroxymethyl)tetrahydro-2H-pyran-3-yl)amino)-3′,6′-dihydro-[2,4′-bipyridine]-1′(2′H)-carboxylate]",< 10 µM
2,O[C@@H]1[C@H](O)[C@@H](Nc2cccc(C(F)(F)F)n2)CO[C@@H]1COc1ccccc1 [A243],< 10 µM
3,"O[C@@H]1[C@H](O)[C@@H](Nc2cncc(C(F)(F)F)n2)CO[C@@H]1Cc1nnc(-c2ccccc2)o1 [A209, (2R,3R,4R,5S)-2-((5-phenyl-1,3,4-oxadiazol-2-yl)methyl)-5-((6-(trifluoromethyl)pyrazin-2-yl)amino)tetrahydro-2H-pyran-3,4-diol]",< 10 µM
4,"O=C(O)CN1CCC(N2CCN(C[C@H]3OC[C@H](Nc4cncc(C(F)(F)F)n4)[C@@H](O)[C@H]3O)CC2)CC1 [A206, 2-(4-(4-(((2R,3R,4R,5S)-3,4-dihydroxy-5-((6-(trifluoromethyl)pyrazin-2-yl)amino)tetrahydro-2H-pyran-2-yl)methyl)piperazin-1-yl)piperidin-1-yl)acetic acid]",< 10 µM
5,O[C@@H]1[C@H](O)[C@@H](Oc2cccc(C(F)(F)F)n2)CO[C@@H]1CN1CCN(c2ccccn2)CC1 [A259],< 10 µM
6,"O[C@@H]1[C@H](O)[C@@H](Nc2cccc(C(F)(F)F)n2)CO[C@@H]1COc1ccc(Br)cc1 [A236, (2R,3R,4R,5S)-2-((4-bromophenoxy)methyl)-5-((6-(trifluoromethyl)pyridin-2-yl)amino)tetrahydro-2H-pyran-3,4-diol]",< 10 µM
7,O=C1c2ccc(F)cc2CN1C[C@H]1OC[C@H](Oc2cccc(C(F)(F)F)n2)[C@@H](O)[C@H]1O [A273],< 10 µM

# More lines, now with the values ahead:
row,Kd,Compound
1,< 10 µM,CC[C@H]1O[C@H](C)[C@H](O)[C@H](O)[C@H]1Oc1cccc(C(F)(F)F)n1 [A316]
2,< 10 µM,OC[C@H]1O[C@H](c2ccccc2)[C@H](Oc2cccc(C(F)(F)F)n2)[C@@H](O)[C@H]1O [A329]
3,< 10 µM,O=S(=O)(C[C@H]1OC[C@H](Oc2cccc(C(F)(F)F)n2)[C@@H](O)[C@H]1O)c1ccccc1 [A310]
4,< 10 µM,"C#C[C@H]1O[C@H](C)[C@H](O)[C@H](O)[C@H]1Oc1cccc(C(F)(F)F)n1 [A214, (2R,3R,4S,5R,6R)-6-ethynyl-2-methyl-5-((6-(trifluoromethyl)pyridin-2-yl)oxy)tetrahydro-2H-pyran-3,4-diol]"
5,< 10 µM,O=C(O)c1ccc(OC[C@H]2OC[C@H](Oc3cccc(C(F)(F)F)n3)[C@@H](O)[C@H]2O)nn1 [A246]
6,< 10 µM,O=C(O)c1ccc(OC[C@@]23CO[C@@H](O2)[C@H](Nc2cncc(C(F)(F)F)n2)[C@@H](O)[C@H]3O)nn1 [A281]
7,< 10 µM,C[C@H]1O[C@H](CCCO)[C@H](Oc2cccc(C(F)(F)F)n2)[C@@H](O)[C@H]1O [A318]
8,< 10 µM,C[C@H]1O[C@@H](c2ccccn2)[C@H](Oc2cccc(C(F)(F)F)n2)[C@@H](O)[C@H]1O [A336]
9,< 10 µM,O=C(O)c1ccc(N2CCN(C[C@H]3OC[C@H](Oc4cccc(C(F)(F)F)n4)[C@@H](O)[C@H]3O)CC2)nn1 [A276]
10,< 10 µM,CC[C@]1(COc2ccc(C(=O)O)nn2)O[C@H](O)[C@H](Nc2cccc(C(F)(F)F)n2)[C@@H](O)[C@H]1O [A314]
11,< 10 µM,O[C@@H]1[C@H](O)[C@@H](Oc2cccc(C(F)(F)F)n2)CO[C@@H]1COc1ccccn1 [A287]
12,< 10 µM,"O[C@@H]1[C@H](O)[C@@H](Nc2cncc(C(F)(F)F)n2)CO[C@@H]1COc1cccnn1 [A212, (2R,3R,4R,5S)-2-((pyridazin-3-yloxy)methyl)-5-((6-(trifluoromethyl)pyrazin-2-yl)amino)tetrahydro-2H-pyran-3,4-diol]"
13,< 10 µM,O[C@@H]1[C@@H](Nc2cccc(C(F)(F)F)n2)[C@H]2OC[C@](COc3cnccn3)(O2)[C@@H]1O [A296]

# Same assay, conditions: SPR, Biacore 8K, 25° C.; Table 1D; read-out: ASGPR KD
row,Compound,Kd
1,O=C(O)c1ccc(C(=O)N2C[C@H](Nc3cncc(C(F)(F)F)n3)[C@@H](O)[C@@H](O)C2)nc1 [A392],< 10 µM
2,O=C(OCc1ccccc1)N1C[C@H](Nc2cccc(C(F)(F)F)n2)[C@@H](O)[C@@H](O)C1 [A390],< 10 µM
3,O[C@@H]1[C@@H](Nc2cncc(C(F)(F)F)n2)CN(Cc2ccccc2)C[C@@H]1O [A373],< 10 µM
4,CC(=O)NNC(=O)N1C[C@H](Oc2cccc(C(F)(F)F)n2)[C@@H](O)[C@@H](O)C1 [A357],< 10 µM
5,O=C(OCc1ccccc1)N1C[C@H](Nc2cncc(C(F)(F)F)n2)[C@@H](O)[C@@H](O)C1 [A361],< 10 µM

# Next, values leading:
row,Kd,Compound
1,< 10 µM,O[C@@H]1[C@H](O)[C@@H](Oc2cncc(C(F)(F)F)n2)CO[C@@H]1COc1ncccn1 [A417]
2,< 10 µM,C[C@H]1O[C@H](c2cc(-c3ccccc3)no2)[C@H](Oc2cccc(C(F)(F)F)n2)[C@@H](O)[C@H]1O [A346]

# Same assay, conditions: SPR, Biacore 8K, 25° C.; Table 1E; read-out: ASGPR KD
row,Kd,Compound
1,< 10 µM,C[C@H]1O[C@H](C2=CC3C(C2=O)[C@H]2CC[C@@H]3C2)[C@H](Oc2cccc(C(F)(F)F)n2)[C@@H](O)[C@H]1O (stereo partly shown) [A435B]
2,< 10 µM,C[C@H]1O[C@H](CO)[C@H](Oc2cccc(C(F)(F)F)n2)[C@@H](O)[C@H]1O [A438]
3,< 10 µM,C[C@H]1O[C@H](COc2cnc(C(=O)O)cn2)[C@H](Oc2cccc(C(F)(F)F)n2)[C@@H](O)[C@H]1O [A443]
4,< 10 µM,C[C@H]1O[C@H](c2nc(-c3ccccc3)no2)[C@H](Oc2cccc(C(F)(F)F)n2)[C@@H](O)[C@H]1O [A451]

# Same assay, conditions: SPR; Table 2; read-out: ASGPR SPR Binding KD
row,Kd,Compound
1,< 0.1 µM,CC1(C)C(=O)c2ccc(-c3cnc(N4CCN5C(=O)N(CCOCCOCCOCC(=O)NC(COCCC(=O)NCCOCCOCCOCCOC[C@H]6OC[C@H](Nc7cncc(C(F)(F)F)n7)[C@@H](O)[C@H]6O)COCCC(=O)NCCOCCOCCOCCOC[C@H]6OC[C@H](Nc7cncc(C(F)(F)F)n7)[C@@H](O)[C@H]6O)C[C@@H]5C4)nc3)nc2N1Cc1cccnc1C#N [compound 19]
